Test results from PubChem BioAssay (NCI).
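Method: 48-hour compound exposure of cells in 96-well plates, five concentrations, linear interpolation of endpoints. Here, GI50 denotes the concentration required for 50% inhibition of growth. TGI is the concentration that stops growth completely.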

Columns and labels:
Assay in all cases: NCI anticancer screen, dose series, 48 h
U251 CNS = test system: U251 CNS
SNB-75 CNS = test system: SNB-75 CNS
SF-268 CNS = test system: SF-268 CNS
SN12C renal = test system: SN12C renal
K-562 leukemia = test system: K-562 leukemia
NCI-H522 lung = test system: NCI-H522 lung
NCI-H226 lung = test system: NCI-H226 lung
SK-MEL-2 melanoma = test system: SK-MEL-2 melanoma
SNB-19 CNS = test system: SNB-19 CNS
UO-31 renal = test system: UO-31 renal

Structure (SMILES)	GI50 (U251 CNS)	TGI (U251 CNS)	GI50 (SNB-75 CNS)	TGI (SNB-75 CNS)	GI50 (SF-268 CNS)	TGI (SF-268 CNS)	GI50 (SN12C renal)	TGI (SN12C renal)	GI50 (K-562 leukemia)	TGI (K-562 leukemia)	GI50 (NCI-H522 lung)	TGI (NCI-H522 lung)	GI50 (NCI-H226 lung)	TGI (NCI-H226 lung)	GI50 (SK-MEL-2 melanoma)	TGI (SK-MEL-2 melanoma)	GI50 (SNB-19 CNS)	TGI (SNB-19 CNS)	GI50 (UO-31 renal)	TGI (UO-31 renal)
NC(=N\N=C/c1cccc([N+](=O)[O-])c1)/C(N)=N\N=C/c1cccc([N+](=O)[O-])c1	> 100 µM	> 100 µM	> 100 µM	> 100 µM	> 100 µM	> 100 µM	> 100 µM	> 100 µM	> 100 µM	> 100 µM	> 100 µM	> 100 µM	> 100 µM	> 100 µM	> 100 µM	> 100 µM	> 100 µM	> 100 µM	> 100 µM	> 100 µM
Cn1nc(-c2ccccc2)nc1[N+](=O)[O-]		> 10 µM		> 10 µM		> 10 µM		> 10 µM		> 10 µM		> 10 µM		> 10 µM		> 10 µM		> 10 µM		> 10 µM
Nc1ncn(C2C=C(CO)C(O)C2O)c(=O)n1 (stereo not given)		> 100 µM		> 100 µM		> 100 µM		> 100 µM		> 100 µM		> 100 µM		> 100 µM		> 100 µM		> 100 µM		> 100 µM
O=C(Nc1cc[c]([Sb](=[O])([OH])[OH])cc1)c1ccccc1	> 100 µM	> 100 µM	> 100 µM	> 100 µM	> 100 µM	> 100 µM	> 100 µM	> 100 µM	> 100 µM	> 100 µM	> 100 µM	> 100 µM	> 100 µM	> 100 µM	> 100 µM	> 100 µM	> 100 µM	> 100 µM	> 100 µM	> 100 µM
COc1ccc2c(CN3CCC[C@H]3C(=O)O)cc3cc4c(cc3c2c1)OCO4	13.2 µM	> 100 µM	11.4 µM	30.1 µM	9.87 µM	67.1 µM	6.04 µM	73.2 µM	20.2 µM	> 100 µM	11.1 µM	95.2 µM	17 µM	> 100 µM	12.6 µM	29.8 µM	14 µM	> 100 µM	17 µM	> 100 µM
NC(=O)c1ccc2c(-c3ccnc(NCCCO)n3)c(-c3ccc(F)cc3)nn2c1	> 25 µM	> 25 µM	> 10 µM	> 25 µM	> 22.2 µM	> 25 µM	> 25 µM	> 25 µM	> 25 µM	> 25 µM	> 25 µM	> 25 µM	> 25 µM	> 25 µM	> 25 µM	> 25 µM	> 25 µM	> 25 µM	5.9 µM	> 25 µM
O=C(CC12CC3CC(CC(C3)C1)C2)NCCOCCOCCOCCNC(=O)c1cc2c(o1)C(=O)c1ccccc1C2=O	1.53 µM	3.09 µM	2.02 µM	3.51 µM	2.17 µM	5.59 µM	1.03 µM	2.26 µM	1.32 µM	5.32 µM	1.54 µM	3.51 µM	1.75 µM	4 µM	1.64 µM	3.93 µM	1.32 µM	7.63 µM	1.51 µM	3.13 µM
